Results reported in patent US20260076975A1, “TPK AGONIST AND METHOD FOR USING SAME TO TREAT NEURODEGENERATIVE DISEASES” (SHANGHAI RAISING PHARMACEUTICAL CO., LTD., priority 2022, published 2026).
Read-outs that look alike come from different tables or passages of the source.

Molecular target: TPK enzyme (Homo sapiens, UniProt Q9H3S4)
Assay: TPK enzyme activity test (TDP formation from thiamine and ATP, HPLC detection)
Format: biochemical
Experimental: The purpose of this example was to test the promoting effect of compounds on TPK enzyme activity and evaluate the in vitro activity of the compounds based on EC50 and Emax.
1.1) The constant-temperature water-bath shaker was pre-heated half an hour in advance at a pre-heating temperature of 37° C.
1.2) The stock solution of the compound to be tested was taken out, allowed to thaw at room temperature, and then diluted to the required concentration.
1.3) The required reagents were placed on ice to thaw.
2.1) For each reaction system, TPK enzyme solution, Tris-HCl buffer solution, and ATP solution were added. The concentration of ATP used was 1-500 mM. The above three solutions were formulated into a homogeneous mixture.
2.2) The mixture of the above three solutions was dispensed into centrifuge tubes. Then, the compound at the required concentration was added to each centrifuge tube. Finally, thiamine solution (1-100 μM) was added. After the addition of the above system was completed, the centrifuge tubes were tightly capped, inserted into a floating board, and placed in the constant-temperature water-bath shaker that had been pre-heated to 37° C. for incubation for 0.5-2.0 hours.
2.3) After the incubation was completed, perchloric acid stop solution was added and mixed well. Samples were taken into 1.5 mL centrifuge tubes and stored at −20° C.
3.1) The samples stored at −20° C. were taken out, thawed at room temperature, and then subjected to derivatization treatment. The samples were placed in centrifuge tubes, a potassium ferricyanide derivatization reagent was added, and finally phosphoric acid stop solution was added to stop the reaction.
3.2) The derivatized samples were placed in sample vials for liquid chromatography analysis, and the contents of TDP/thiamine were detected by high performance liquid chromatography. TKP enzyme activity=TDP (nM)/mg protein/min.
The effects of the compounds of the present invention on TPK enzyme activity at different concentrations were determined according to the above procedures.

[1] = promoting effect on TPK enzyme activity
[2] = promoting effect on TPK enzyme activity, calculated with the effect of DMSO on TPK enzyme activity as 100%, read-out: Emax

Chain of TPK enzyme (Q9H3S4 whole entry): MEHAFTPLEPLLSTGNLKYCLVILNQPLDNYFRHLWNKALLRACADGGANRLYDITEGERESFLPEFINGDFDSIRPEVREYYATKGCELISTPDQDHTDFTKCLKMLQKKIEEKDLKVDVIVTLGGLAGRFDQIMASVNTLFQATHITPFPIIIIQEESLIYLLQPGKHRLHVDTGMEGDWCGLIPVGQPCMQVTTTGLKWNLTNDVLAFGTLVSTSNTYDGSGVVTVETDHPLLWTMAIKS

Row | SMILES | EC50 [1] [µM] | Emax [2] [%] | Emax [%]
1 | O=C1CCc2ccc(OC#CCCN3CCN(c4cccc(Cl)c4Cl)CC3)cc2N1 [Compound 1, 7-((4-(4-(2,3-dichlorophenyl)piperazin-1-yl)but-1-yn-1-yl)oxy)-3,4-dihydroquinolin-2(1H)-one] | 1.16 | 183 | –
2 | O=C1CCc2ccc(OCCCCN3CCN(c4cccc(Cl)c4Cl)CC3)cc2N1 [Compound 2] | 0.46 | 155 | –
3 | O=C1CCc2ccc(OCCCCCCN3CCN(c4cccc(Cl)c4Cl)CC3)cc2N1 [Compound 3, 7-((6-(4-(2,3-dichlorophenyl)piperazin-1-yl)hexyl)oxy)-3,4-dihydroquinolin-2(1H)-one] | – | 205 | –
4 | O=C1CCc2ccc(OCCCCCN3CCN(c4cccc(Cl)c4Cl)CC3)cc2N1 [Compound 4, 7-((5-(4-(2,3-dichlorophenyl)piperazin-1-yl)pentyl)oxy)-3,4-dihydroquinolin-2(1H)-one] | 1.04 | 194 | –
5 | O=C1CCc2ccc(OCCCN3CCN(c4cccc(Cl)c4Cl)CC3)cc2N1 [Compound 5] | 1.2 | 184 | –
6 | O=C1CCc2ccc(OCCCCN3CCN(c4cccc(C(F)(F)F)c4)CC3)cc2N1 [Compound 6, 7-(4-(4-(3-(trifluoromethyl)phenyl)piperazin-1-yl)butoxy)-3,4-dihydroquinolin-2(1H)-one] | 1.27 | 215 | –
7 | O=C1CCc2ccc(OCCCCCN3CCN(c4cccc(C(F)(F)F)c4)CC3)cc2N1 [Compound 7, 7-((5-(4-(3-(trifluoromethyl)phenyl)piperazin-1-yl)pentyl)oxy)-3,4-dihydroquinolin-2(1H)-one] | 1.18 | 224 | –
8 | O=c1ccc2ccc(OCCCCN3CCN(c4cccc(Cl)c4Cl)CC3)cc2[nH]1 [Compound 10, 7-(4-(4-(2,3-dichlorophenyl)piperazin-1-yl)butoxy)quinolin-2(1H)-one] | 0.13 | 183 | –
9 | O=C1CCc2ccc(OCCCCN3CCC(c4cccc(Cl)c4Cl)CC3)cc2N1 [Compound 19] | 5.01 | 196 | –
10 | O=C1CCc2ccc(OCC(=O)NC3CCC(c4cccc(Cl)c4Cl)CC3)cc2N1 (stereo not shown) [Compound 21, N-(4-(2,3-dichlorophenyl)cyclohexyl)-2-((2-oxo-1,2,3,4-tetrahydroquinolin-7-yl)oxy)acetamide] | 1.06 | 166 | –
11 | O=C1NCCc2ccc(OCCCCN3CCN(c4cccc(Cl)c4Cl)CC3)cc21 [Compound 22] | 1.19 | 167 | –
12 | O=C1NCCc2ccc(OCCCCCN3CCN(c4cccc(Cl)c4Cl)CC3)cc21 [Compound 23, 7-((5-(4-(2,3-dichlorophenyl)piperazin-1-yl)pentyl)oxy)-3,4-dihydroisoquinolin-1(2H)-one] | 1.01 | 226 | –
13 | O=C1Cc2ccc(OCCCCN3CCN(c4cccc(Cl)c4Cl)CC3)cc2N1 [Compound 24, 6-(4-(4-(2,3-dichlorophenyl)piperazin-1-yl)butoxy)indolin-2-one] | – | 189 | –
14 | O=C1Cc2ccc(OCCCCN3CCN(c4cccc(C(F)(F)F)c4)CC3)cc2N1 [Compound 25, 6-(4-(4-(3-(trifluoromethyl)phenyl)piperazin-1-yl)butoxy)indolin-2-one] | 0.754 | 138 | –
15 | O=C1COc2ccc(OCCCCN3CCN(c4cccc(Cl)c4Cl)CC3)cc2N1 [Compound 26] | 1.22 | 190 | –
16 | Clc1cccc(N2CCN(CCCOc3ccc4ncsc4c3)CC2)c1Cl [Compound 28, 6-(3-(4-(2,3-dichlorophenyl)piperazin-1-yl)propoxy)benzo[d]thiazole] | 1.54 | 185 | –
17 | Clc1cccc(N2CCN(CCCCOc3ccc4ncsc4c3)CC2)c1Cl [Compound 29, 6-(4-(4-(2,3-dichlorophenyl)piperazin-1-yl)butoxy)benzo[d]thiazole] | 2.28 | 191 | –
18 | CC1(C)CCC(C)(C)c2cc(NC(=O)C=CC(=O)N3CCN(c4cccc(Cl)c4Cl)CC3)ccc21 [Compound 30, 4-(4-(2,3-dichlorophenyl)piperazin-1-yl)-4-oxo-N-(5,5,8,8-tetramethyl-5,6,7,8-tetrahydronaphthalen-2-yl)but-2-enamide] | – | 132 | –
19 | CC1(C)CCC(C)(C)c2cc(NC(=O)CCC(=O)N3CCN(c4cccc(Cl)c4Cl)CC3)ccc21 [Compound 31, 4-(4-(2,3-dichlorophenyl)piperazin-1-yl)-4-oxo-N-(5,5,8,8-tetramethyl-5,6,7,8-tetrahydronaphthalen-2-yl)butanamide] | – | 124 | –

Row | SMILES | EC50 [1] [µM] | Emax [2] [%] | Emax [%]
20 | O=C1CCc2ccc(OCCN3CCN(c4nc5ccccc5s4)CC3)cc2N1 [Compound 34, 7-(2-(4-(benzo[d]thiazol-2-yl)piperazin-1-yl)ethoxy)-3,4-dihydroquinolin-2(1H)-one] | 1.3 | 189 | –
21 | O=c1ccc2ccc(OCCN3CCN(c4nc5ccccc5s4)CC3)cc2[nH]1 [Compound 35, 7-(2-(4-(benzothiazol-2-yl)piperazin-1-yl)ethoxy)quinolin-2(1H)-one] | 1.37 | 163 | –
22 | O=C1CCc2ccc(OCCCCN3CCN(c4nc5ccccc5s4)CC3)cc2N1 [Compound 36, 7-(4-(4-(benzo[d]thiazol-2-yl)piperazin-1-yl)butoxy)-3,4-dihydroquinolin-2(1H)-one] | 1.32 | 139 | –
23 | O=c1ccc2ccc(OCCCCN3CCN(c4nc5ccccc5s4)CC3)cc2[nH]1 [Compound 37, 7-(4-(4-(benzo[d]thiazol-2-yl)piperazin-1-yl)butoxy)quinolin-2(1H)-one] | 1.17 | 224 | –
24 | O=C1CCc2ccc(OCCCN3CCN(c4nc5ccccc5s4)CC3)cc2N1 [Compound 38, 7-(3-(4-(benzo[d]thiazol-2-yl)piperazin-1-yl)propoxy)-3,4-dihydroquinolin-2(1H)-one] | 1.18 | 157 | –
25 | Cc1cc2c(s1)Nc1ccccc1N=C2N1CCN(CCCOc2ccc3c(c2)NC(=O)CC3)CC1 [Compound 40, 7-(3-(4-(2-methyl-10H-benzo[b]thieno[2,3-e][1,4]diazepin-4-yl)piperazin-1-yl)propoxy)-3,4-dihydroquinolin-2(1H)-one] | – | 122 | –
26 | Cc1cc2c(s1)Nc1ccccc1N=C2N1CCN(CCCCOc2ccc3c(c2)NC(=O)CC3)CC1 [Compound 42, 7-(4-(4-(2-methyl-10H-benzo[b]thieno[2,3-e][1,4]diazepin-4-yl)piperazin-1-yl)butoxy)-3,4-dihydroquinolin-2(1H)-one] | 1 | 170 | –
27 | O=C1Cc2ccc(OCCCCN3CCN(c4nc5ccccc5s4)CC3)cc2N1 [Compound 44, 6-(4-(4-(benzo[d]thiazol-2-yl)piperazin-1-yl)butoxy)indolin-2-one] | 1.14 | 235 | –
28 | Cc1cccc(NC(=O)CSCC(=O)N2CCN(c3cc(C(F)(F)F)cc(C(F)(F)F)c3)CC2)c1 [Compound 45, 2-((2-(4-(3,5-bis(trifluoromethyl)phenyl)piperazin-1-yl)-2-oxoethyl)thio)-N-(m-tolyl)acetamide] | 1.07 | 152 | –
29 | Cc1cccc(NC(=O)CSCC(=O)N2CCN(c3cccc(Cl)c3Cl)CC2)c1 [Compound 46] | 1.31 | 149 | –
30 | COc1ccc(NC(=O)CN2CCN(c3cccc(Cl)c3Cl)CC2)cc1N [Compound 47, N-(3-amino-4-methoxyphenyl)-2-(4-(2,3-dichlorophenyl)piperazin-1-yl)acetamide] | 4.65 | 199 | –
31 | COc1ccc(NC(=O)CN2CCN(c3cccc(Cl)c3Cl)CC2)cc1N(C)C [Compound 48, 2-(4-(2,3-dichlorophenyl)piperazin-1-yl)-N-(3-(dimethylamino)-4-methoxyphenyl)acetamide] | 3.8 | 156 | –
32 | CNc1cc(NC(=O)CCN2CCN(c3cccc(Cl)c3Cl)CC2)ccc1OC [Compound 50, 3-(4-(2,3-dichlorophenyl)piperazin-1-yl)-N-(4-methoxy-3-(methylamino)phenyl)propanamide] | – | 128 | –
33 | O=C(NCCCCN1CCN(c2cc(C(F)(F)F)cc(C(F)(F)F)c2)CC1)c1ccc(Cl)cc1 [Compound 53, N-(4-(4-(3,5-bis(trifluoromethyl)phenyl)piperazin-1-yl)butyl)-4-chlorobenzamide] | – | – | 133
34 | O=C(/C=C/c1cc(O)c(O)c(O)c1)N1CCN(c2cccc(Cl)c2Cl)CC1 [Compound 55, (E)-1-(4-(2,3-dichlorophenyl)piperazin-1-yl)-3-(3,4,5-trihydroxyphenyl)prop-2-en-1-one] | – | 134 | –
35 | O=C(/C=C/c1ccc(O)c(O)c1)N1CCN(c2cccc(Cl)c2Cl)CC1 [Compound 56] | – | 180 | –
36 | COc1cc(/C=C/C(=O)N2CCN(c3cccc(Cl)c3Cl)CC2)cc(OC)c1OC [Compound 57] | – | 135 | –
37 | COc1ccc(/C=C/C(=O)N2CCN(c3cccc(Cl)c3Cl)CC2)cc1OC [Compound 58] | 1.2 | 223 | –
